Test results as given in PubChem BioAssay AID2060892 (Molecular Pharmacology Branch, DTP, NCI, 2025).

Tested on: HOP-62 complex spheroids with HUVEC/MSC, viability
Assay: Anticancer human tumor HOP-62 cell line growth inhibition [RAS];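 note: spheroids exposed to agents for seven days before readout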;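 for viability, T/C: 100% = DMSO vehicle control viability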
Conditions: for viability, T/C: stronger effect = lower value
Outline: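 Multi-cell-type spheroids: tumor cells plus HUVEC endothelial cells and mesenchymal stem cells. RAS-pathway inhibitors were combined with targeted agents, each dosed in half-log steps down from clinical Cmax, or from 10 microM when Cmax was unknown.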

C=CC(=O)N1CCN(c2nc(OCC3CCCN3C)nc3c(F)c(-c4nc(N)cc(C)c4C(F)(F)F)c(Cl)cc23)C(C)C1 (configuration not stated)
viability, T/C (compound 0.01 µM, compound 0.0316 µM): 66.5%
viability, T/C (compound 0.01 µM, compound 0.1 µM): 64.5%
viability, T/C (compound 0.01 µM, compound 0.316 µM): 71%
viability, T/C (compound 0.01 µM, compound 1 µM): 61.3%
viability, T/C (compound 0.0316 µM, compound 0.00316 µM): 68.3%
viability, T/C (compound 0.0316 µM, compound 0.01 µM): 62.3%
viability, T/C (compound 0.0316 µM, compound 0.1 µM): 66.5%
viability, T/C (compound 0.0316 µM, compound 0.316 µM): 64%
viability, T/C (compound 0.0316 µM, compound 1 µM): 64.2%
viability, T/C (compound 0.0316 µM): 67.5%
viability, T/C (compound 0.1 µM, compound 0.00316 µM): 59.4%
viability, T/C (compound 0.1 µM, compound 0.01 µM): 63.4%
viability, T/C (compound 0.1 µM, compound 0.0316 µM): 57.5%
viability, T/C (compound 0.1 µM, compound 0.316 µM): 66.9%
viability, T/C (compound 0.1 µM, compound 1 µM): 62.5%
viability, T/C (compound 0.1 µM): 64.9%
viability, T/C (compound 0.316 µM, compound 0.00316 µM): 69.2%
viability, T/C (compound 0.316 µM, compound 0.01 µM): 68%
viability, T/C (compound 0.316 µM, compound 0.0316 µM): 59.4%
viability, T/C (compound 0.316 µM, compound 0.1 µM): 66%
viability, T/C (compound 0.316 µM, compound 1 µM): 68%
viability, T/C (compound 0.316 µM): 66.3%
viability, T/C (compound 1 µM, compound 0.00316 µM): 76.3%
viability, T/C (compound 1 µM, compound 0.01 µM): 65.6%
viability, T/C (compound 1 µM, compound 0.0316 µM): 64%
viability, T/C (compound 1 µM, compound 0.1 µM): 66.4%
viability, T/C (compound 1 µM, compound 0.316 µM): 65%
viability, T/C (compound 1 µM): 67.3% [middle of 13 runs]
IC50 (compound alone, run of 07/15/2024): > 1000 nM
IC50 (curve of compound): > 1000 nM

Cc1nc(N2CCC3(CC2)COC(C)C3N)c(CO)nc1Sc1ccnc(N)c1Cl (configuration not stated) + CCn1c(-c2cccnc2C(C)OC)c2c3cc(ccc31)N1CCOC(CC(NC(=O)C(C(C)C)N(C)C(=O)C3(F)CCN(C(=O)C#CC(C)(C)N(C)C)CC3)C(=O)N3CCCC(N3)C(=O)OCC(C)(C)C2)C1
IC50 (curve of first compound, second compound 0.000949 µM): 2920 nM
IC50 (curve of first compound, second compound 0.003 µM): 541 nM
IC50 (curve of first compound, second compound 0.00949 µM): 738 nM
IC50 (curve of first compound, second compound 0.03 µM): 465 nM
IC50 (curve of first compound, second compound 0.0949 µM): 302 nM
IC50 (curve of first compound, second compound 0.3 µM): 213 nM
viability, T/C (second compound 0.000949 µM, first compound 0.0316 µM): 120%
viability, T/C (second compound 0.000949 µM, first compound 0.1 µM): 101%
viability, T/C (second compound 0.000949 µM, first compound 0.316 µM): 60.3%
viability, T/C (second compound 0.000949 µM, first compound 1 µM): 65.7%
viability, T/C (second compound 0.000949 µM, first compound 3.16 µM): 63.3%
viability, T/C (second compound 0.000949 µM, first compound 10 µM): 31.3%
viability, T/C (second compound 0.003 µM, first compound 0.0316 µM): 107%
viability, T/C (second compound 0.003 µM, first compound 0.1 µM): 80.1%
viability, T/C (second compound 0.003 µM, first compound 0.316 µM): 42.9%
viability, T/C (second compound 0.003 µM, first compound 1 µM): 55.6%
viability, T/C (second compound 0.003 µM, first compound 3.16 µM): 35.3%
viability, T/C (second compound 0.003 µM, first compound 10 µM): 18.3%
viability, T/C (second compound 0.00949 µM, first compound 0.0316 µM): 80.7%
viability, T/C (second compound 0.00949 µM, first compound 0.1 µM): 59.4%
viability, T/C (second compound 0.00949 µM, first compound 0.316 µM): 83.1%
viability, T/C (second compound 0.00949 µM, first compound 1 µM): 41.3%
viability, T/C (second compound 0.00949 µM, first compound 3.16 µM): 23.9%
viability, T/C (second compound 0.00949 µM, first compound 10 µM): 22.4%
viability, T/C (second compound 0.03 µM, first compound 0.0316 µM): 77.8%
viability, T/C (second compound 0.03 µM, first compound 0.1 µM): 70.5%
viability, T/C (second compound 0.03 µM, first compound 0.316 µM): 58.5%
viability, T/C (second compound 0.03 µM, first compound 1 µM): 34.9%
viability, T/C (second compound 0.03 µM, first compound 3.16 µM): 20.1%
viability, T/C (second compound 0.03 µM, first compound 10 µM): 20.9%
viability, T/C (second compound 0.0949 µM, first compound 0.0316 µM): 81.4%
viability, T/C (second compound 0.0949 µM, first compound 0.1 µM): 64.2%
viability, T/C (second compound 0.0949 µM, first compound 0.316 µM): 51.5%
viability, T/C (second compound 0.0949 µM, first compound 1 µM): 35.5%
viability, T/C (second compound 0.0949 µM, first compound 3.16 µM): 19.8%
viability, T/C (second compound 0.0949 µM, first compound 10 µM): 23%
viability, T/C (second compound 0.3 µM, first compound 0.0316 µM): 84.8%
viability, T/C (second compound 0.3 µM, first compound 0.1 µM): 66.1%
viability, T/C (second compound 0.3 µM, first compound 0.316 µM): 41.6%
viability, T/C (second compound 0.3 µM, first compound 1 µM): 26.5%
viability, T/C (second compound 0.3 µM, first compound 3.16 µM): 20.3%
viability, T/C (second compound 0.3 µM, first compound 10 µM): 19.4%
